Measured values as given in US11000454B2, “Dental composition” (DENTSPLY SIRONA inc., priority 2016, dated 2021).

What was measured:
[1] = Solubility of the compounds in tested solvents; type: physicochemical; design: key to solubility: “−” means NO solubility; “++” means VERY GOOD solubility
[2] = Viscosity measured at 23° C.; type: physicochemical; details: viscosity at 23° C.
Protocol: (§1) (nD^20) and viscosity n measured at 23° C. (η23° C.) for compounds of formula (I) according to the invention denoted as (Ib) and (Ic), and comparative compounds (C1), (C2) and (C3). Compound (Ib) is N,N′-bisacryloyl-N,N′-bisallyl-[…], and compound (Ic) is N,N′-bisacryloyl-N,N′-bispropyl-1,4-but-2-endiamine. Comparative compound (C1) is N,N′-bisacetyl-N,N′-bisallyl-1,4-but-2-endiamine, (C2) is N,N′-bisacryloyl-N,N′-bisallyl-1,4-butandiamine, and C(3) is N,N′-bisacryloyl-N,N′-bispropyl-1,4-butandiamine. In FIG. 1, RI is depicted by dark grey bars, and the viscosity η by light grey hatched bars. For comparative compound (C1), no viscosity η was determined (indicated by “*”), since this compound is a solid.

[3] = Refractive index (RI) measured at 20° C.; type: physicochemical
Protocol: as §1

[4] = Discoloration of the dental composition upon storage; type: physicochemical; details: storage at 50° C. for 30 days
Text: Discoloration upon storage and/or during photocuring may be determined according to ISO 7491:2000(en).

[5] = refractive index at 20° C., tables
[6] = refractive index, preparative examples

C=CCN(C/C=C/CN(CC=C)C(=O)C=C)C(=O)C=C [(Ia)]
solubility ([1]; EtOH): ++
solubility ([1]; acetone): ++***)
solubility ([1]; iPrOH): ++
solubility ([1]; methacrylic acid): ++
solubility ([1]; water): −**^)
η23° C. ([2]; tables): 338.0 mPa · s
nD^20 [3, 5]: 1.5290

C=CC(=O)N(CCC)CCCCN(CCC)C(=O)C=C [(C3), N,N′-Bisacryloyl-N,N′-bispropyl-1,4-butandiamine]
solubility ([1]; EtOH): ++
solubility ([1]; acetone): ++
solubility ([1]; iPrOH): ++
solubility ([1]; methacrylic acid): ++
solubility ([1]; water): −
η23° C. ([2]; preparative examples): 486±1 Pa*s
η23° C. ([2]; tables): 485.5 mPa · s
nD^20 [3, 5]: 1.5150
nD^20 [3, 6]: 1.515

CC(C)(C)c1cc(O)c(C(C)(C)C)cc1O [DTBHQ]
discoloration of the dental composition upon storage [4]: no or almost no discoloration

C=CCN(C/C=C/CN(CC=C)C(C)=O)C(C)=O [(C1), N,N′-Bisacetyl-N,N′-bisallyl-1,4-but-2-endiamine]
solubility ([1]; EtOH): ++
solubility ([1]; acetone): ++
solubility ([1]; iPrOH): ++
solubility ([1]; methacrylic acid): ++
solubility ([1]; water): −
melting point: 32 °C
nD^20 [3, 6]: 1.505

C=CCN(C/C=C/C(C)N(CC=C)C(=O)C=C)C(=O)C=C (stereo not drawn) [Compound (Ib)]
solubility ([1]; EtOH): ++
solubility ([1]; acetone): ++
solubility ([1]; iPrOH): ++
solubility ([1]; methacrylic acid): ++
solubility ([1]; water): −
η23° C. ([2]; tables): 409.0 mPa · s
nD^20 [3, 5]: 1.5260
nD^20 [3, 6]: 1.526

C=CCN(CCCCN(CC=C)C(=O)C=C)C(=O)C=C [(C2), N,N′-Bisacryloyl-N,N′-bisallyl-1,4-butandiamine]
solubility ([1]; EtOH): −
solubility ([1]; acetone): ++
solubility in alcohols ([1]; alcohols like ethanol or isopropanol): not soluble
solubility ([1]; iPrOH): −
solubility ([1]; methacrylic acid): ++
solubility ([1]; water): −
solubility ([1]; water/alcohol): −
η23° C. ([2]; tables): 382.0 mPa · s
nD^20 [3, 5]: 1.5150
nD^20 [3, 6]: 1.515

C=CC(=O)N(C/C=C/CN(CCC)C(=O)C=C)CCC [(Ic), N,N′-Bisacryloyl-N,N′-bispropyl-1,4-but-2-endiamine]
solubility ([1]; EtOH): ++
solubility ([1]; acetone): ++
solubility ([1]; iPrOH): ++
solubility ([1]; methacrylic acid): ++
solubility ([1]; water): −
η23° C. ([2]; preparative examples): 428±3 Pa*s
η23° C. ([2]; tables): 427.5 mPa · s
nD^20 [3, 5]: 1.5095
nD^20 [3, 6]: 1.5095
